{
  "source": "paper doi:10.1101/2023.03.15.532718v2",
  "about": "“Bacterial hemophilin homologs and their specific type eleven secretor proteins have conserved roles in heme capture and are diversifying as a family” (biorxiv, 2023)",
  "key": {"[1]": {"biological_target": "T1, BSA (Bos taurus, UniProt P02769)", "T1 construct": "gene ALB", "T1 sequence (P02769 25-607)": "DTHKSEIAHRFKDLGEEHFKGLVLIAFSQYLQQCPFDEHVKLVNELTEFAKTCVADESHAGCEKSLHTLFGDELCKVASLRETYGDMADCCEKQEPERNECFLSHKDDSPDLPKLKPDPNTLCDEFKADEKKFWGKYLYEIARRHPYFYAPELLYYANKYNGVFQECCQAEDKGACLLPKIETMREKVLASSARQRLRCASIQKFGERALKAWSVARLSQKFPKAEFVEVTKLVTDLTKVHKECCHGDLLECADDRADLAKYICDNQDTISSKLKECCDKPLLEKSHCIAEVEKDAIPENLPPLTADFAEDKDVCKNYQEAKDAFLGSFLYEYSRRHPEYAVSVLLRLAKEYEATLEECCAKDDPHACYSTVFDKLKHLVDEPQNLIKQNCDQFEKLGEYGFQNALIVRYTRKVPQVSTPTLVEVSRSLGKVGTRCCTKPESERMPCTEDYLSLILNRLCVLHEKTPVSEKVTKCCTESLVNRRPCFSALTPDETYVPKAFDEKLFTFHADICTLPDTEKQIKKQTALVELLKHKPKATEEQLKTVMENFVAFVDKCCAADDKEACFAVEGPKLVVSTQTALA", "experiment": "UV-visible absorption titration, […] fit", "type": "binding", "conditions": "20 mM Tris-HCl pH 8.0, 21 °C, brackets 95% confidence interval"}, "[2]": {"biological_target": "T2, HrpC (Xn HrpC) (Xenorhabdus nematophila, UniProt D3VG73)", "T2 construct": "gene XNC1_0075; residues 23-247, signal peptide omitted, His6 tag cut by TEV leaving N-terminal Gly-His-Met, E. coli Rosetta-2, apo-protein by RP-HPLC", "T2 sequence (D3VG73 entry or part of it)": "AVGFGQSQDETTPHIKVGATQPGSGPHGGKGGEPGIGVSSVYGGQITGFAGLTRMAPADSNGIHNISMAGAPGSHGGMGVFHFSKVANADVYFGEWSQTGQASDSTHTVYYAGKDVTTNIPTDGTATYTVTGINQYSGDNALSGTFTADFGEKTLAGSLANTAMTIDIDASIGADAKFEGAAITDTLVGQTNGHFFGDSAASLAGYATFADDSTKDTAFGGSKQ", "type": "binding", "conditions": "20 mM Tris-HCl pH 8.0, 21 °C, brackets 95% confidence interval"}, "[3]": {"biological_target": "T3, CrpC (Xc CrpC) (Xenorhabdus cabanillasii, UniProt A0A3D9UFK6)", "T3 construct": "gene BDD26_3141; residues 23-238, signal peptide omitted, His6 tag cut by TEV leaving N-terminal Gly-His-Met, E. coli Rosetta-2, apo as purified; HGB2490 is the authors' collection number", "T3 sequence (A0A3D9UFK6 entry or part of it)": "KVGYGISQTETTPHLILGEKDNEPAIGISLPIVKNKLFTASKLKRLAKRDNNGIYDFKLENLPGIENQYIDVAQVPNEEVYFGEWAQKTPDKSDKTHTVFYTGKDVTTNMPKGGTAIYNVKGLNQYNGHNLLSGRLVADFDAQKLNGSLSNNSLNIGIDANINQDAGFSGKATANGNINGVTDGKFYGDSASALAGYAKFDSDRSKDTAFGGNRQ", "type": "binding", "conditions": "20 mM Tris-HCl pH 8.0, 21 °C, brackets 95% confidence interval"}, "[4]": {"biological_target": "T4, Hpl (hemophilin, Hh Hpl) (Haemophilus haemolyticus, UniProt A0A0M3G7Q5)", "T4 construct": "gene AAX18_03525; signal peptide omitted, expressed in E. coli cytoplasm as previously described, apo-protein by acid acetone; strain BW1 printed for the secretion clone only", "T4 sequence (A0A0M3G7Q5 entry or part of it)": "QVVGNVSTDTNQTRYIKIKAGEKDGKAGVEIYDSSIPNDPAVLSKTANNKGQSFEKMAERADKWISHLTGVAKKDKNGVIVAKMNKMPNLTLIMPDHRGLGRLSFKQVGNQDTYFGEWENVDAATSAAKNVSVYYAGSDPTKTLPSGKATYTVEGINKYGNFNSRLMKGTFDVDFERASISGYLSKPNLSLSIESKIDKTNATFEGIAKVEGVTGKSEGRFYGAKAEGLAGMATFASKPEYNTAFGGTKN", "experiment": "biochemical", "type": "binding"}, "[5]": {"biological_target": "T5, Ab HphA (Acinetobacter baumannii, UniProt A0A059ZRB8)", "T5 construct": "signal peptide omitted, expressed in E. coli cytoplasm, apo-protein", "T5 sequence (A0A059ZRB8 whole entry)": "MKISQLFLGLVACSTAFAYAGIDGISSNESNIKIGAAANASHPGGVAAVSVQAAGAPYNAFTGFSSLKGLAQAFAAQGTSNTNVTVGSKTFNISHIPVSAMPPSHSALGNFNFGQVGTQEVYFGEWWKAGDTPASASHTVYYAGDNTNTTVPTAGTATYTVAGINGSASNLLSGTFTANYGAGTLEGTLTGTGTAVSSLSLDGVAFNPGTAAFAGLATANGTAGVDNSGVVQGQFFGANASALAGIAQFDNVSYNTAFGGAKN", "experiment": "biochemical", "set-up": "UV-visible absorbance titration of porphyrin with protein, 1:1 fit with ligand depletion, 21 C pH 8.0", "method": "Hemin binding measurements in absorbance mode were made by successive additions of apo-protein (∼0.4 mM stock) into porphyrin solution (1.5 µM) in 20 mM Tris-HCl, pH 8 at 21°C. All binding experiments were performed at 21°C. Data were fitted to a 1:1 binding model accounting for ligand depletion, where Fobs is fluorescence signal, F0 is the starting [drawing 1] fluorescence, Fsat is a scaling factor for fluorescence at saturation, L and M are the ligand and macromolecule concentrations, respectively, and Kd is the equilibrium dissociation constant. Data were fitted using GNUPLOT version 4.6. […] Here, SSbest is the sum-of-squares for the fit with all parameters floated; Dfn and Dfd are the degrees of freedom in the numerator and denominator, respectively, for calculation of F. The Kd value was then fixed at values above or below the best-fit Kd until fits exceeded the threshold sum-of-squares. To determine a lower limit of Kd that we could expect to fit from absorbance measurements we simulated data for different Kd values with Gaussian noise added to give fits with SSbest that matched our experimental data. […] Titration of hemophilin homologues with hemin. […] A) Spectra recorded after addition of H. haemolyticus Hpl to a final concentration in the range 0.3–4.5 µM. B) Spectra recorded after addition of A. baumannii HphA to a final concentration in the range 0.4–3.8 µM. […]"}},
  "note": "Like-named read-outs stand apart in the source and are kept apart here.",
  "data": [
    {"smiles": "C=CC1=C(C)C2=Cc3c(C=C)c(C)c4[n]3[Fe]([Cl])[n]3c(c(C)c(CCC(=O)O)c3=CC3=NC(=C4)C(C)=C3CCC(=O)O)=CC1=N2", "note": "[hemin]", "values": [
      {"measurement": "Kd", "setting": "[1]; apparent Kd", "result": "2 (1–5) × 10^3 nM"},
      {"measurement": "Kd", "setting": "[2]; b21 prints both nM and µM for this value, table nM", "result": 20, "unit": "nM"},
      {"measurement": "Kd", "setting": "[3]; apparent Kd", "result": "5 (1–9) × 10^3 nM"}
    ]},
    {"smiles": "C=CC1=C(C)c2cc3[nH]c(cc4nc(cc5[nH]c(cc1n2)c(C)c5CCC(=O)O)C(CCC(=O)O)=C4C)c(C)c3C=C", "note": "[PPIX]", "values": [
      {"measurement": "Kd", "setting": "[4]", "result": 70, "unit": "nM"},
      {"measurement": "Kd", "setting": "[5]", "result": "≤ 15", "unit": "nM"},
      {"measurement": "Kd", "setting": "[1]", "result": "11 (6–14) × 10^3 nM"},
      {"measurement": "Kd", "setting": "[2]", "result": 20, "unit": "nM"},
      {"measurement": "Kd", "setting": "[3]", "result": "7 (3–11) × 10^3 nM"}
    ]}
  ]
}
